Laboratory results as given in ChEMBL document CHEMBL5674860, “Optimized Dual-Glo Assay to identify co-culture-induced drug vulnerabilities in 3D CRC models” (2024).
Square brackets hold non-standard residues; d marks the D form. Peptide text beside a SMILES is read from it. Arg(Me) = CNC(=N)NCCC[C@H](N)C(=O)O; d3Pal = N[C@H](Cc1cccnc1)C(=O)O; d4Pal = N[C@H](Cc1ccncc1)C(=O)O; azaGly = NNC(=O)O

Columns and labels:
Type in all cases: functional, Homo sapiens
Parameters in all cases: dose or concentration left out as unconfirmed
[1] = system: Colon cancer organoid; experiment: Optimized Dual-Glo assay to identify co-culture induced drug vulnerabilities using donated chemical probes and chemogenomics kinase set in O14 CRC organoid and F14 CAF mono and co-culture. […] Cell viability is reported both mono and co-culture models.
[2] = system: Colon cancer organoid; experiment: Optimized Dual-Glo assay to identify co-culture induced drug vulnerabilities using donated chemical probes and chemogenomics kinase set in O20 CRC organoid and F20 CAF mono and co-culture. […] Cell viability is reported both mono and co-culture models.
[3] = system: Colon cancer organoid; experiment: Optimized Dual-Glo assay to identify co-culture induced drug vulnerabilities using donated chemical probes and chemogenomics kinase set in O06 CRC organoid and F06 CAF mono and co-culture. […] Cell viability is reported both mono and co-culture models.
[4] = Culture type Co-Culture, Transduced with Lucferase2-P2A-EGFP lentivirus
[5] = Culture type Co-Culture, Transduced with Renilla-dsRed lentivirus
[6] = Culture type Mono-Culture, Transduced with Lucferase2-P2A-EGFP lentivirus
[7] = Culture type Mono-Culture, Transduced with Renilla-dsRed lentivirus

Row | Compound | Cell Viability [1, 4] [%] | Cell Viability [1, 5] [%] | Cell Viability [1, 6] [%] | Cell Viability [1, 7] [%] | Cell Viability [2, 4] [%] | Cell Viability [2, 5] [%] | Cell Viability [2, 6] [%] | Cell Viability [2, 7] [%] | Cell Viability [3, 4] [%] | Cell Viability [3, 5] [%] | Cell Viability [3, 6] [%] | Cell Viability [3, 7] [%]
1 | COc1nc2ccc([C@@](O)(c3ccccc3)C3CCN(C(C)=O)CC3)cc2c(Cl)c1Cc1ccc(-n2cccn2)cc1 [JNJ-54119936] | 91.6435 | 104.692 | 80.3234 | 104.355 | 65.101 | 118.395 | 94.7218 | 120.218 | 98.9754 | 75.6952 | 103.766 | 113.997
2 | CC(=O)Nc1ncc(CN2CCC[C@H](Cc3cc(C)nc(C)c3)C2)s1 [JNJ-65355394] | 87.2976 | 97.4656 | 96.7484 | 85.3088 | 88.5022 | 103.797 | 76.2761 | 119.778 | 144.109 | 117.923 | 95.1702 | 105.247
3 | CC(=O)Nc1nc(CN2CCC[C@H](Cc3cc(C)nc(C)c3)C2)cs1 [JNJ-73924149] | 81.3438 | 100.385 | 108.387 | 92.0646 | 90.3874 | 105.251 | 100.726 | 118.221 | 110.779 | 72.9092 | 164.947 | 124.842
4 | N#CN1CC[C@@H](C(=O)Nc2nc3c(s2)CN(C(=O)CN=[N+]=[N-])CC3)C1 [JYQ88] | 85.6014 | 100.681 | 114.259 | 88.3695 | 63.8809 | 84.2967 | 72.0417 | 77.9243 | 72.1963 | 58.5555 | 71.7367 | 79.6546
5 | CNC(=N)NCCC[C@H](NC(=O)[C@H](CC(C)C)NC(=O)NNC(=O)[C@H](Cc1ccccc1)NC(=O)[C@H](CO)NC(=O)[C@H](CC(N)=O)NC(=O)[C@@H](Cc1ccncc1)NC(=O)[C@H](N)Cc1ccc(O)cc1)C(=O)N[C@@H](Cc1ccccc1)C(N)=O [KISS1-305] (H-[dY][d4Pal]NSF[azaGly]L[Arg(Me)]F-NH2) | 143.349 | 104.877 | 85.2761 | 111.321 | 118.72 | 125.679 | 103.004 | 99.3377 | 104.031 | 118.904 | 114.891 | 119.718
6 | CNC(=N)NCCC[C@H](NC(=O)[C@H](CC(C)C)NC(=O)NNC(=O)[C@H](Cc1ccccc1)NC(=O)[C@H](CO)NC(=O)[C@H](CC(N)=O)NC(=O)[C@@H](Cc1cccnc1)NC(=O)[C@H](N)Cc1ccc(O)cc1)C(=O)NCC(N)=O [KISS1-543] (H-[dY][d3Pal]NSF[azaGly]L[Arg(Me)]G-NH2) | 118.116 | 72.7172 | 93.1075 | 78.975 | 101.104 | 120.489 | 73.3632 | 97.5472 | 103.647 | 101.302 | 85.2773 | 99.9886
7 | C[C@]1(O)C[C@@H](c2nc(-c3ccc4ccc(-c5ccccc5)nc4c3)c3c(N)nccn32)C1 [LINSITINIB] | 41.9562 | 109.271 | 38.702 | 83.4141 | 60.4709 | 65.9185 | 18.406 | 73.2347 | 53.0716 | 100.619 | 21.1574 | 74.7669
8 | O=C(NOC[C@H](O)CO)c1ccc(F)c(F)c1Nc1ccc(I)cc1F [MIRDAMETINIB] | 4.141 | 39.571 | 2.016 | 25.7095 | 3.888 | 83.5811 | 5.164 | 45.8585 | 8.8965 | 49.9042 | 7.213 | 36.7215
9 | CCS(=O)(=O)Nc1ccc(Oc2ccc(F)cc2F)c(-c2cn(C)c(=O)c3[nH]ccc23)c1 [MIVEBRESIB] | 11.3223 | 338.596 | 8.201 | 180.439 | 5.728 | 64.2458 | 7.404 | 12.1973 | 13.1828 | 272.686 | 12.7607 | 153.585
10 | CN([C@@H]1CCc2c(CC(=O)O)c3ccccc3n2C1)S(=O)(=O)c1ccc(F)cc1 [MK-7246] | 76.0592 | 112.144 | 82.2127 | 107.31 | 94.6909 | 109.932 | 110.185 | 99.3239 | 127.259 | 149.477 | 87.9847 | 110.238
11 | C[C@@H]1CN(c2cc(-c3nn(C)c4ccc(OC5(C)CC5)cc34)ncn2)C[C@H](C)O1 [MLi-2-NC] | 118.993 | 72.3586 | 109.582 | 102.606 | 112.711 | 86.6644 | 122.371 | 89.7102 | 21.8005 | 254.626 | 83.2909 | 98.8275
12 | CC(=O)c1c(NS(C)(=O)=O)c2cc(-c3ccc(Cl)cc3)c(-c3ccc(Cl)cc3Cl)nc2n(C)c1=O [MRL-CB1-NC] | 103.447 | 111.697 | 108.811 | 108.592 | 159.821 | 122.581 | 102.28 | 97.0964 | 125.408 | 125.307 | 109.863 | 112.651
13 | Cc1ccc(-c2cnc([C@@]3(O)CC[C@H](C(=O)O)C(C)(C)C3)s2)cc1Nc1cccc(C(F)(F)F)n1 [MRL-SYKi-NC] | 89.1631 | 98.4974 | 85.8631 | 77.2403 | 106.503 | 131.597 | 144.144 | 94.9642 | 103.411 | 158.333 | 78.37 | 87.8946
